Values joined by “and” are separate entries in the source; they are usually repeats but may differ in a detail not shown here. Identical values can stand only once. Like-named read-outs stand apart in the source and are kept apart here.
Legend:
hSERT [1] = target: T1, hSERT (Homo sapiens, UniProt P31645); assay: [3H]5-HT transport (SERT uptake) assay in transfected HeLa cells; assay type: cell-based
T1 construct: The full-length cDNA encoding hSERT in the mammalian expression vector pcDNA3.1; expressed in transfected cells; host or cells: HeLa
Procedure: (§1) Transfection and Transport Studies. HeLa cells, maintained at 37° C. in a 5% CO2 humidified incubator, were grown in complete medium (Dulbecco's Modified Eagle's Medium (DMEM, Invitrogen), 10% fetal bovine serum, 2 mM L-glutamine, 100 units/ml penicillin, and 100 μg/ml streptomycin).
(§2) Transport, Binding, Biotinylation and Phosphorylation Studies. […] To establish levels and biosynthetic progression of hSERT protein produced from mutant cDNAs, HeLa cells were plated in 6-well dishes at 500,000 cells per well and transfected 12 h later. Twenty four hours after transfection, whole cell detergent extracts were blotted for hSERT (mAb Technologies, Inc., 1:1000) using enhanced chemiluminescence (ECL, Amersham) detection.

hSERT Ile425Val (I425V) = target: T2, hSERT Ile425Val (I425V) (Homo sapiens, UniProt P31645, I425V); assay: as above; assay type: cell-based
T2 construct: The full-length cDNA encoding hSERT in the mammalian expression vector pcDNA3.1; expressed in transfected cells; host or cells: HeLa
Procedure: as §1, §2

[2] = target: T3, native SERT in RN46A cells (Rattus norvegicus, UniProt P31652); assay: [3H]5-HT transport assay in RN46A cells; assay type: cell-based; details: for blockade of anisomycin-stimulated 5-HT uptake: SB203580, ODQ 10 μm, H8 0.1 μm
T3 construct: derived from rat E13 raphenucleus, that expresses native SERT; endogenous in cells; host or cells: RN46A cells

hSERT Pro339Leu (P339L) = hSERT Pro339Leu (P339L) (Homo sapiens, UniProt P31645, P339L)
Procedure: as §1, §2

[3] = tested on: rat SERT expressed by RBL-2H3 cells; assay: [3H]5-HT transport assay in RBL-2H3 cells; assay type: cell-based; details: for blockade of NECA-induced 5-HT uptake: ODQ 10 μm, NECA 1 μm; for blockade of 8-Br-cGMP stimulation of SERT: data not shown
[4] = tested on: five hSERT variants that failed to elicit uptake increases; assay: [125I]RTI-55 surface binding to intact transfected HeLa cells, non-responsive variants; assay type: cell-based, human; details: H8
[5] = tested on: lymphocytes homozygous for the Gly variant (hSERT Gly56); assay: 5-HT uptake in genotyped lymphocyte lines; assay type: cell-based, human; details: H8 versus 8BrcGMP; SB203580 versus anisomycin
Text: Genotyping and Lymphocyte Studies. Lymphocyte lines were derived from autistic pedigrees recruited by Susan E. Folstein (Johns Hopkins Univ), from the Autism Genetics Resource Exchange (AGRE) collection (www.agre.org/), and from the NIMH Human Genetics Initiative Repository (www.nimhgenetics.org/) at Rutgers University. DNA from lymphoblastoid cell lines was genotyped via TaqMan-based allelic discrimination, using an Applied Biosystems (Foster City, Calif.) Assay-by-Design and independently confirmed by PCR and direct sequence analysis. […] Lymphocyte were pelleted at 1500 rpm, 5 min and washed with KRH assay buffer. A total of 1×10^6 cells in triplicate were pre-warmed (37° C.) in a shaking water bath (10 min) in 12×75 polypropylene tubes in KRH buffer containing 100 μM pargyline and 100 μM ascorbic acid+/−modifiers.

hSERT [6] = target: T1, hSERT; assay: [125I]RTI-55 binding to intact transfected HeLa cells (surface and total SERT); assay type: cell-based; details: paroxetine as displacer; data not shown
[7] = tested on: rat SERT expressed by RBL-2H3 cells; details: Zhu et al., 2004a,b; cited from earlier work
p38 MAPK = assay type: cell-based, rat
Procedure: Assays of p38 MAPK Activation. […] Medium was removed by aspiration, and cells were washed once with KRH buffer and then incubated in triplicate at 37° C. in KRH buffer with or without p38 MAPK activators for 5-10 min. Assay buffer was removed, and cells were immediately fixed with fresh 4% formaldehyde (Sigma) in PBS for 20 min at room temperature and washed four times with 1×PBS containing 0.1% Triton X-100 (Sigma) (5 min per wash) prior to 1 h of blocking with Odyssey blocking buffer (Li-Cor Biosciences, Lincoln, Nebr.). RBL-2H3 cells were subsequently probed with dual phosphorylated (Thr(P) and Tyr(P)) p38 MAPK polyclonal antibody (Cell Signaling; 1:400) in Odyssey blocking buffer with gentle mixing for 2 h at room temperature. Cells were then washed four times with 1×PBS containing 0.1% Tween 20 (Sigma) for 5 min. Bound antibody was detected with fluorescence-labeled secondary antibody-Alexa Fluor® 680 (avoiding exposure to light; 1:200 in Odyssey Blocking Buffer, Molecular Probes, Inc., Eugene, Oreg.) for 1 h. After four washes with 1×PBS, 0.1% Tween 20, the plate was scanned, and the captured image of the signal was processed and quantified with the Odyssey™ Infrared Imaging System (Li-Cor Biosciences). For UV radiation to activate p38 MAPK, plates seeded with cells were placed in a UV source (UV Stratalinker 1800, Stratagene, La Jolla, Calif.) that was preset to deliver 4×10^4 μJ/cm^2 at room temperature.

SERT in RBL-2H3 cells = target: T4, SERT in RBL-2H3 cells (Rattus norvegicus, UniProt P31652); assay: [125I]RTI-55 binding to intact RBL-2H3 cells; assay type: cell-based; details: for SERT surface density (5-HT-displaceable [125I]RTI-55 binding): anisomycin 1 μm, fostriecin 5 nM, NECA 1 μm, 10 min
T4 construct: As with rat SERT expressed by RBL-2H3 cells; host or cells: RBL-2H3 cells (intact cells, 4° C.)
Text: Binding was terminated by two rapid washes with ice-cold PBS/CM.

human NET = assay: monoamine uptake assay in transfected CHO cells; assay type: cell-based; details: SB203580 preincubation 15 min
Procedure: Cell Culture and Transfection. […] CHO cells (ATCC, Manassas, Va.) were maintained at 37° C. in Dulbecco's MEM containing 10% fetal bovine serum, 1% L-Glu, 100 IU/ml penicillin, and 100 μg/ml streptomycin. For comparison of the response of monoamine transporters to p38 MAPK activation, CHO cells were transfected with cDNAs for hSERT, hDAT, or hNET (100 ng/well for a 24-well plate). Transfections of CHO cells were performed using TransIT-LT1 Transfection Reagent (Mirus, Madison, Wis.) according to the manufacturer's protocol (0.3 μl/well). hSERT, hDAT, or hNET cDNAs were preincubated with the reagent at ambient temperature for 30 min before being added to plated CHO cells. Cells were cultured for 24 h after transfection. The transfection mixture was removed just prior to assay.
CHO cells were plated at 20,000 cells/well 16-24 h before transfection, and the uptake assay was performed 24 h following the transfection. […] Medium was removed by aspiration, and cells were washed once with Krebs-Ringer HEPES (KRH) buffer containing 130 mM NaCl, 1.3 mM KCl, 2.2 mM CaCl2, 1.2 mM MgSO4, 1.2 mM KH2PO4, 1.8 g/liter glucose, 10 mM HEPES, pH 7.4. […] Cells were solubilized with 0.5 ml of Microscint 20 (PerkinElmer Life Sciences), and tritium-labeled monoamine accumulation was quantitated using a TopCount plate scintillation counter (PerkinElmer Life Sciences).

hSERT variants = assay: 5-HT transport regulation by phorbol ester in transfected HeLa cells, all variants; assay type: cell-based, human; details: each hSERT variant; slightly greater for Thr4Ala, Lys605Asn, Pro621Ser
Procedure: as §1, §2

NCCc1c[nH]c2ccc(O)cc12 = tested on: T5, NCCc1c[nH]c2ccc(O)cc12; assay: cells, lysate or membranes; assay type: cell-based, human; details: other: saturation kinetics of 5-HT transport, hSERT; pH 7.4; 37.0 °C
T5 construct: The full-length cDNA encoding hSERT in the mammalian expression vector pcDNA3.1; expressed in transfected cells; host or cells: HeLa

[8] = pretreatment, then anisomycin 1 μm 10 min, SB compounds, curcumin, PD98059, ODQ 10 μm, H8 0.1 μm, DT-2 1.0 μm, fostriecin 5 nM, MTSET 10 mM, siRNA 100 nM 48 h

T3 sequence (P31652 whole entry): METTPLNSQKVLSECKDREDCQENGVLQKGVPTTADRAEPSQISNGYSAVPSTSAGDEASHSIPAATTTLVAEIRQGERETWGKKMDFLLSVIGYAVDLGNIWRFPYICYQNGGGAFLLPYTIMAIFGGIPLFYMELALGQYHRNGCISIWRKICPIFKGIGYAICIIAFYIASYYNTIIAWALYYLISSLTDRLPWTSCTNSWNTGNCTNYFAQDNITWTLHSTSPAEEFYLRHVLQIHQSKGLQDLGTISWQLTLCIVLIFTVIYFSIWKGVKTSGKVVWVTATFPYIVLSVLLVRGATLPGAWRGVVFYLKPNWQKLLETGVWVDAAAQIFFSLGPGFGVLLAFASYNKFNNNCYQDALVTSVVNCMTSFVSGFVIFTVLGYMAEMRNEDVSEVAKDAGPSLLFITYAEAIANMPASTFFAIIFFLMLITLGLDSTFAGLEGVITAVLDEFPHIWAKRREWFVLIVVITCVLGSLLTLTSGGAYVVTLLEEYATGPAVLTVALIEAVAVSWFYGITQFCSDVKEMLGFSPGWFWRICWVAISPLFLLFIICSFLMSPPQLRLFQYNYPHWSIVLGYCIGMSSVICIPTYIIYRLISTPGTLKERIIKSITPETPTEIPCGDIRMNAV
T4 sequence (P31652 whole entry): as above

## NCCc1c[nH]c2ccc(O)cc12 [5-HT, 5-hydroxytryptamine]
hSERT [1]; saturation kinetics, hSERT
  5-HT Vmax: 416.2+19 fmol/well/min
hSERT Ile425Val (I425V)
  5-HT Vmax: 190+/−28 % of hSERT
hSERT Ile425Val (I425V); saturation kinetics
  5-HT Vmax: 789.5+28 fmol/well/min
[2]; read-out: SERT Km for 5-HT, RN46A, vehicle
  Km: 0.799 ± 0.097 µM
hSERT Pro339Leu (P339L)
  5-HT Vmax: 3.0+/−1.2 % of hSERT
hSERT Pro339Leu (P339L); saturation kinetics
  5-HT Vmax: 1.2 ± 0.11 fmol/well/min
[3]; read-out: SERT Km for 5-HT, RBL-2H3, vehicle
  Km: 1.06 ± 0.145 µM

## OO [H2O2, hydrogen peroxide]
[3]
  stimulation of 5-HT transport activity: stimulated 5-HT transport to a level comparable with 1 μm anisomycin

## CNCCNS(=O)(=O)c1cccc2cnccc12 [H8, N-[2-(methylamino)ethy]-5-isoquinoline sulfonamide]
[4]
  blockade of 8BrcGMP-induced reduction in surface density: completely blocked
[5]
  antagonist sensitivity of stimulated 5-HT transport: sensitive to H8
hSERT [1]
  antagonism of 8BrcGMP stimulation of 5-HT transport: completely antagonized
hSERT [6]
  total [125I]RTI-55 binding: no effects on total binding
[2]; RN46A, DT-2 1.0 μm
  blockade of anisomycin-stimulated 5-HT uptake: failed to attenuate
[3]; H8 0.1 μm, DT-2 1.0 μm
  blockade of NECA-induced 5-HT uptake: abolish
[3]
  blockade of 8-Br-cGMP stimulation of SERT: blocked
[3]; [8]
  blockade of anisomycin-stimulated 5-HT uptake / SERT activity: failed to attenuate

## O=C1C(Nc2ccccc2)=CC(=O)c2ncccc21 [LY83583]
[7]
  blockade of AR stimulation of SERT: completely abolished
[2]; RN46A, DT-2 1.0 μm
  blockade of anisomycin-stimulated 5-HT uptake: neither agent attenuated anisomycin stimulation
[3]; [8]
  blockade of anisomycin-stimulated 5-HT uptake / SERT activity: neither agent attenuated anisomycin stimulation

## C[N+](C)(C)CCSS(C)(=O)=O [MTSET, [2-(Trimethylammonium)ethyl]methanethiosulfonate]
[3]
  blockade of anisomycin-stimulated 5-HT uptake / SERT activity: abolished

## CCNC(=O)[C@H]1O[C@@H](n2cnc3c(N)ncnc32)[C@H](O)[C@@H]1O [NECA]
p38 MAPK; 5 min treatment
  level of p38 MAPK phosphorylation stimulation: comparable to stimulation achieved with 8-bromo-cGMP
p38 MAPK; data not shown
  total p38 MAPK levels: No changes
SERT in RBL-2H3 cells; acute treatment
  total SERT (paroxetine-displaceable [125I]RTI-55 binding): does not change
SERT in RBL-2H3 cells
  SERT surface density (5-HT-displaceable [125I]RTI-55 binding): significant increase

## O=c1onc2cnc3ccccc3n12 [ODQ, 1H-(1,2,4)-oxadiazolo[4,3-a]quinoxalin-1-one]
[7]
  blockade of AR stimulation of SERT: completely abolished
[2]; RN46A, DT-2 1.0 μm
  blockade of anisomycin-stimulated 5-HT uptake: neither agent attenuated anisomycin stimulation
[3]
  blockade of anisomycin-stimulated 5-HT uptake / SERT activity: neither agent attenuated anisomycin stimulation
[3]; H8 0.1 μm, DT-2 1.0 μm
  blockade of NECA-induced 5-HT uptake: abolish

## COc1cccc(-c2cc(=O)c3ccccc3o2)c1N [PD98059]
[3]
  blockade of anisomycin-stimulated 5-HT uptake / SERT activity: failed to block

## Oc1ccc(-c2nc(-c3ccc(F)cc3)c(-c3ccncc3)[nH]2)cc1 [SB202190]
[3]
  blockade of anisomycin-stimulated 5-HT uptake / SERT activity: blocked anisomycin stimulation of SERT

## CCc1nc(-c2ccc(OC)cc2)[nH]c1-c1ccncc1 [SB202474]
[3]
  blockade of anisomycin-stimulated 5-HT uptake / SERT activity: lacked antagonistic activity

## C[S+]([O-])c1ccc(-c2nc(-c3ccc(F)cc3)c(-c3ccncc3)[nH]2)cc1 (stereo not shown) [SB203580]
Human NET
  blockade of anisomycin stimulation of NET: blocking stimulation back to basal levels

## COC[C@@H]([C@H](O)[C@H](O)C(=O)NCC[C@H](C)c1nc(/C=C/C[C@@H]2O[C@]3(C[C@@H](O)[C@@H]2C)O[C@H]([C@H](C[C@H](O)[C@H](C)[C@H](O)[C@H](C)/C=C(C)/C(C)=C/C=C/C(C)=C\C#N)OC)[C@H](OP(=O)(O)O)C3(C)C)co1)N(C)C [calyculin A]
[3]; calyculin A 20 nM
  basal 5-HT uptake: fails to diminish
[3]; calyculin A 20 nM, 15 min preincubation
  blockade of anisomycin stimulation of SERT: completely blocks
[3]; calyculin A 100 nM, fostriecin higher concentrations
  5-HT uptake at higher concentrations: inhibits both basal and anisomycin-stimulated 5-HT uptake

## COc1cc(/C=C/C(=O)CC(=O)/C=C/c2ccc(O)c(OC)c2)ccc1O [curcumin]
[3]
  blockade of anisomycin-stimulated 5-HT uptake / SERT activity: lacked antagonistic activity

## C[C@@](O)(/C=C/[C@H]1CC=CC(=O)O1)[C@@H](C[C@@H](O)\C=C/C=C\C=C\CO)OP(=O)(O)O [fostriecin]
SERT in RBL-2H3 cells
  SERT surface density (5-HT-displaceable [125I]RTI-55 binding): did not impact the binding
SERT in RBL-2H3 cells; concentration that completely blocks anisomycin stimulation
  blockade of NECA-induced enhancement of SERT surface density: fails to block
[3]
  5-HT uptake at higher concentrations: inhibit basal 5-HT uptake
  blockade of anisomycin-stimulated 5-HT uptake / SERT activity: completely blocks

## CCCCCCCCCCCCCC(=O)O[C@@H]1[C@@H](C)[C@@]2(O)[C@@H](C=C(CO)C[C@]3(O)C(=O)C(C)=C[C@@H]23)[C@@H]2C(C)(C)[C@]12OC(C)=O [β-PMA]
hSERT variants
  downregulation of 5-HT transport following β-PMA, relative to hSERT: equal to or slightly greater
hSERT [1]
  downregulation of 5-HT transport activity: ~40%

## YGRKKRRQRRRPP-LRK5H-amide [DT-2]
[2]; DT-2 1.0 μm
  sensitivity of 8-bromo-cGMP-induced 5-HT transport to PKG antagonist: sensitive
[2]; RN46A, DT-2 1.0 μm
  blockade of anisomycin-stimulated 5-HT uptake: failed to attenuate
[3]; H8 0.1 μm, DT-2 1.0 μm
  blockade of NECA-induced 5-HT uptake: abolish
[3]
  blockade of 8-Br-cGMP stimulation of SERT: blocked
[3]; [8]
  blockade of anisomycin-stimulated 5-HT uptake / SERT activity: failed to attenuate

## bisindolylmaleimide [BIM]
hSERT [1]; BIM 1 μM
  blockade of β-PMA downregulation: blocked

## hSERT (Homo sapiens)
NCCc1c[nH]c2ccc(O)cc12
  Km: 1.00+/−0.47 μM and 1.00+0.17 μM
